Results as given in US20170209364A1, “Method For Treating The Appearance Of Thinning Hair” (priority 2016, published 2017).

Tests used:
[1] = in vitro
Method: Cells were seeded in a 24-well plate and cultured for 24 hours in culture medium.
At the end of incubation, the cells were incubated with MTT (tetrazolium salt) reduced in blue formazan crystals by succinate dehydrogenase (mitochondrial enzyme). This transformation is proportional to the enzyme activity. After cell dissociation and formazan crystal solubilization using DMSO, the optical density (OD) of the extracts at 540 nm, proportional to the number of living cells and their metabolic activity, was recorded with a microplate reader (VERSAmax, Molecular Devices). The equation used for measuring cell viability is as follows: viability (%)=(OD sample/OD control)×100.
Dermal papilla cell viability is measured with a standard MTT assay (via ASTM E2526-08(2013)).

[2] = tested on: 5-α reductase enzyme; assay: 5-α reductase inhibition: [14C]-testosterone metabolism to DHT in cultured cells (TLC/autoradiography); type: cell-based; conditions: Finasteride 1 × 10^−5 M (reference)
Method: Cells were seeded in a 24-well plate and cultured for 24 hours in culture medium. […] Cells were then treated with assay medium containing [^14C]-testosterone and containing the test compound, the association or the reference and the cells were incubated for 24 hours. The culture supernatants were then collected for testosterone metabolism analysis and a standard MTT reduction assay was performed on the cell layers (cell viability assessment).
All experimental conditions were performed in n=3.
The steroid molecules from supernatants were extracted with a chloroform/methanol mix. The organic phase was collected and the different molecular species (testosterone metabolites) were separated by thin layer chromatography (TLC) and using a solvent system containing dichloromethane, ethyl acetate and methanol.
An autoradiography was performed on the chromatography and the transformed testosterone was estimated by densitometric analysis of the different spots corresponding to testosterone metabolites (Packard Cyclone Phosphorlmager and Fujifilm Multigauge software).

CC(C)(C)NC(=O)[C@H]1CC[C@H]2[C@@H]3CC[C@H]4NC(=O)C=C[C@]4(C)[C@H]3CC[C@]12C [Finasteride, finasteride]
viability at 48 h [1]: 101% | DHT/Testosterone ratio as % of Control [2]: 28%
